{"source": "PubChem BioAssay AID256", "about": "(DTP/NCI, 2004)", "tested_on": "CD2F1 mice, L1210 leukemia ip, survival T/C", "assay": "NCI In Vivo Anticancer Drug Screen. Data for tumor model L1210 Leukemia (intraperitoneal) in CD2F1 (CDF1) mice", "conditions": "higher = longer survival", "summary_of_the_method": "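Read-out first: treated-group measurement over vehicle-control measurement, expressed as a ratio. Animals bore a transplanted tumor line and were dosed with compound or vehicle.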", "key": {"[1]": {"conditions": "endpoint: mean survival time, dose: 25.0 mg/kg/injection, schedule: Q04DX002 (ip), vehicle: saline with Tween-80"}, "[2]": {"conditions": "endpoint: mean survival time, dose: 50.0 mg/kg/injection, schedule: Q04DX002 (ip), vehicle: saline with Tween-80"}, "[3]": {"conditions": "endpoint: mean survival time, dose: 100.0 mg/kg/injection, schedule: Q04DX002 (ip), vehicle: saline with Tween-80"}, "[4]": {"conditions": "endpoint: mean survival time, dose: 100.0 mg/kg/injection, schedule: Q04DX003 (ip), vehicle: saline with Tween-80"}, "[5]": {"conditions": "endpoint: mean survival time, dose: 200.0 mg/kg/injection, schedule: Q04DX003 (ip), vehicle: saline with Tween-80"}, "[6]": {"conditions": "endpoint: mean survival time, dose: 400.0 mg/kg/injection, schedule: Q04DX003 (ip), vehicle: saline with Tween-80"}, "[7]": {"conditions": "endpoint: mean survival time, dose: 100.0 mg/kg/injection, schedule: Q01DX009 (ip), vehicle: saline with Tween-80"}, "[8]": {"conditions": "endpoint: mean survival time, dose: 200.0 mg/kg/injection, schedule: Q01DX009 (ip), vehicle: saline with Tween-80"}, "[9]": {"conditions": "endpoint: mean survival time, dose: 400.0 mg/kg/injection, schedule: Q01DX009 (ip), vehicle: saline with Tween-80"}, "[10]": {"conditions": "endpoint: mean survival time, dose: 100.0 mg/kg/injection, schedule: Q01DX009 (ip), vehicle: saline"}, "[11]": {"conditions": "endpoint: mean survival time, dose: 200.0 mg/kg/injection, schedule: Q01DX009 (ip), vehicle: saline"}}, "note": "Where “and” joins values, the source holds several entries; their conditions need not be identical. Identical values can stand only once. Inconclusive results and toxic doses are left out."}
{"smiles": "CCc1cccc(CC)c1NC(N)=S", "values": [{"measurement": "T/C", "setting": "[1]", "value": "108 % of control"}, {"measurement": "T/C", "setting": "[2]", "value": "97 % of control"}, {"measurement": "T/C", "setting": "[3]", "value": "101 % of control"}]}
{"smiles": "CCCCC(CC(=O)O)c1ccc(Cl)cc1", "note": "(configuration not stated)", "values": [{"measurement": "T/C", "setting": "[4]", "value": "95 % of control"}, {"measurement": "T/C", "setting": "[5]", "value": "101 % of control"}]}
{"smiles": "CC(C)(C)N/C(=C/C(=O)c1ccccc1)c1ccccc1", "values": [{"measurement": "T/C", "setting": "[4]", "value": "94 % of control"}, {"measurement": "T/C", "setting": "[5]", "value": "96 % of control"}, {"measurement": "T/C", "setting": "[6]", "value": "95 % of control"}]}
{"smiles": "CN1CSC(=S)N(Cc2ccccc2)C1", "values": [{"measurement": "T/C", "setting": "[7]", "value": "93 % of control"}, {"measurement": "T/C", "setting": "[8]", "value": "93 % of control"}, {"measurement": "T/C", "setting": "[9]", "value": "93 % of control"}]}
{"smiles": "CCOC(=O)/C(N=O)=C(/C)O", "values": [{"measurement": "T/C", "setting": "[10]", "value": "96 % of control"}, {"measurement": "T/C", "setting": "[11]", "value": "101 % of control"}, {"measurement": "T/C", "setting": "endpoint: mean survival time, dose: 400.0 mg/kg/injection, schedule: Q01DX009 (ip), vehicle: saline", "value": "110 % of control"}]}
{"smiles": "OCCN=Cc1ccc(OCc2ccccc2)c(OCc2ccccc2)c1", "values": [{"measurement": "T/C", "setting": "endpoint: median survival time, dose: 50.0 mg/kg/injection, schedule: Q04DX002 (ip), vehicle: saline with Tween-80", "value": "100 % of control"}, {"measurement": "T/C", "setting": "endpoint: median survival time, dose: 100.0 mg/kg/injection, schedule: Q04DX002 (ip), vehicle: saline with Tween-80", "value": "111 % of control"}, {"measurement": "T/C", "setting": "endpoint: median survival time, dose: 200.0 mg/kg/injection, schedule: Q04DX002 (ip), vehicle: saline with Tween-80", "value": "88 % of control"}, {"measurement": "T/C", "setting": "endpoint: median survival time, dose: 400.0 mg/kg/injection, schedule: Q04DX002 (ip), vehicle: saline with Tween-80", "value": "100 % of control"}]}
{"smiles": "Cc1ccc(S(=O)(=O)OCC2CC=CCC2COS(=O)(=O)c2ccc(C)cc2)cc1", "note": "(configuration not stated)", "values": [{"measurement": "T/C", "setting": "endpoint: mean survival time, dose: 50.0 mg/kg/injection, schedule: Q04DX003 (ip), vehicle: saline", "value": "102 % of control"}, {"measurement": "T/C", "setting": "endpoint: mean survival time, dose: 100.0 mg/kg/injection, schedule: Q04DX003 (ip), vehicle: saline", "value": "96 % of control"}, {"measurement": "T/C", "setting": "endpoint: mean survival time, dose: 200.0 mg/kg/injection, schedule: Q04DX003 (ip), vehicle: saline", "value": "91 % of control"}]}
{"smiles": "COc1ccc(C(CO)CC(=O)NCCN(C)C)cc1", "note": "(configuration not stated)", "values": [{"measurement": "T/C", "setting": "endpoint: mean survival time, dose: 100.0 mg/kg/injection, schedule: Q04DX002 (ip), vehicle: saline", "value": "100 % of control"}, {"measurement": "T/C", "setting": "endpoint: mean survival time, dose: 200.0 mg/kg/injection, schedule: Q04DX002 (ip), vehicle: saline", "value": "107 % of control"}]}
{"smiles": "CNC=O", "values": [{"measurement": "T/C", "setting": "[10]", "value": "103 % of control and 111 % of control"}, {"measurement": "T/C", "setting": "[11]", "value": "112 % of control"}, {"measurement": "T/C", "setting": "endpoint: mean survival time, dose: 800.0 mg/kg/injection, schedule: Q01DX009 (ip), vehicle: saline", "value": "164 % of control"}]}
{"smiles": "O=C1C=CC(=O)C1=Cc1ccc(O)cc1", "values": [{"measurement": "T/C", "setting": "endpoint: mean survival time, dose: 5.0 mg/kg/injection, schedule: Q04DX002 (ip), vehicle: saline with Tween-80", "value": "100 % of control"}, {"measurement": "T/C", "setting": "endpoint: mean survival time, dose: 10.0 mg/kg/injection, schedule: Q04DX002 (ip), vehicle: saline with Tween-80", "value": "103 % of control"}]}
{"smiles": "CC(C)N(Cl)S(C)(=O)=O", "values": [{"measurement": "T/C", "setting": "endpoint: mean survival time, dose: 25.0 mg/kg/injection, schedule: Q04DX003 (ip), vehicle: saline with Tween-80", "value": "97 % of control"}, {"measurement": "T/C", "setting": "endpoint: mean survival time, dose: 50.0 mg/kg/injection, schedule: Q04DX003 (ip), vehicle: saline with Tween-80", "value": "93 % of control"}, {"measurement": "T/C", "setting": "[4]", "value": "95 % of control"}]}
{"smiles": "COc1ccccc1NC(=O)Oc1ccc(OCc2ccccc2)cc1", "values": [{"measurement": "T/C", "setting": "[7]", "value": "94 % of control"}, {"measurement": "T/C", "setting": "[4]", "value": "108 % of control"}, {"measurement": "T/C", "setting": "[8]", "value": "88 % of control"}, {"measurement": "T/C", "setting": "[5]", "value": "100 % of control"}, {"measurement": "T/C", "setting": "[9]", "value": "87 % of control"}, {"measurement": "T/C", "setting": "[6]", "value": "95 % of control"}]}
{"smiles": "COc1ccccc1NC(=O)Oc1ccccc1-c1ccccc1", "values": [{"measurement": "T/C", "setting": "endpoint: mean survival time, dose: 25.0 mg/kg/injection, schedule: Q01DX009 (ip), vehicle: saline with Tween-80", "value": "93 % of control"}, {"measurement": "T/C", "setting": "[1]", "value": "98 % of control"}, {"measurement": "T/C", "setting": "endpoint: mean survival time, dose: 50.0 mg/kg/injection, schedule: Q01DX009 (ip), vehicle: saline with Tween-80", "value": "93 % of control"}, {"measurement": "T/C", "setting": "[2]", "value": "110 % of control"}, {"measurement": "T/C", "setting": "[7]", "value": "93 % of control"}, {"measurement": "T/C", "setting": "[3]", "value": "87 % of control and 104 % of control"}]}
{"smiles": "ClCC1(CCl)COC(c2ccccc2)OC1", "values": [{"measurement": "T/C", "setting": "[7]", "value": "95 % of control"}, {"measurement": "T/C", "setting": "[8]", "value": "95 % of control"}, {"measurement": "T/C", "setting": "[9]", "value": "94 % of control"}]}
{"smiles": "Cc1cccc2c1CCC(OC(=O)c1cc([N+](=O)[O-])cc([N+](=O)[O-])c1)C2", "note": "(configuration not stated)", "values": [{"measurement": "T/C", "setting": "[7]", "value": "92 % of control"}, {"measurement": "T/C", "setting": "endpoint: mean survival time, dose: 100.0 mg/kg/injection, schedule: Q04DX003 (ip), vehicle: acetone", "value": "98 % of control"}, {"measurement": "T/C", "setting": "endpoint: mean survival time, dose: 200.0 mg/kg/injection, schedule: Q04DX003 (ip), vehicle: acetone", "value": "108 % of control"}, {"measurement": "T/C", "setting": "[5]", "value": "89 % of control"}, {"measurement": "T/C", "setting": "[9]", "value": "97 % of control"}, {"measurement": "T/C", "setting": "endpoint: mean survival time, dose: 400.0 mg/kg/injection, schedule: Q04DX003 (ip), vehicle: acetone", "value": "101 % of control"}]}
